7 compounds from US20240209028A1, “CNP COMPOUNDS” (priority 2022, published 2024) can be followed below.

A short description of data set [1]: High-Molecular-Weight-Protein (HMWP) formation by SEC-UPLC. It is filed as physicochemical. The settings on record: increase over two weeks at 37° C. The gist of the method: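 Formulations at pH 4.0 or 6.5 incubated quiescently for two weeks at 37 °C; HMWP (peaks eluting before monomer, % of total peptide area) measured by SEC-UPLC, pH 2.4 mobile phase with 50% isopropanol, 50 °C, UV 215 nm. Value is HMWP increase, normalized to two weeks if needed.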
(In general: Size exclusion chromatography separates by hydrodynamic size, large species first.)

Data set [2] can be described thus: PK of CNP compounds after i.v. and s.c. administration to rats. The settings on record: male, Sprague Dawley, in vivo, iv, rat, i.v., about 100 nmol/kg; for clearance: read-out: Cl (L/hr/kg), i.v. administration (converted); for half-life: read-out: T½ (hr), i.v. administration (converted). The gist of the method: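 Plasma exposure was quantified by protein precipitation and turboflow LC-MS/MS in SRM mode. Rats received either 100 nmol/kg intravenously or 300 nmol/kg subcutaneously, with sublingual blood taken at baseline and at points up to 72 h. Per-animal NCA gave clearance as Dose/AUCinf, and results are averaged over 4-6 animals.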

Starred links: 1 amine or outer side, 2 acyl side, 3 side chain; linkers in the order of their positions; H or OH if unused. Positions of bridges follow the written chain, without caps; N, C: chain ends. Residues, ends and D or L forms follow the SMILES beside them. *: point of attachment. C18 diacid = O=C(O)CCCCCCCCCCCCCCCCC(=O)*; γGlu = O=C(O)[C@H](CCC(=O)[*:2])N[*:1]; AEEA = NCCOCCOCC(=O)O

As to `CC[C@H](C)[C@@H]1NC(=O)[C@H](CCCNC(=N)N)NC(=O)[C@H](CC(=O)O)NC(=O)[C@H](CC(C)C)NC(=O)[C@@H]2CCCN2C(=O)[C@H](CC(C)C)NC(=O)CNC(=O)[C@H](Cc2ccccc2)NC(=O)[C@@H](NC(=O)CNC(=O)[C@H](CO)NC(=O)[C@H](CO)NC(=O)[C@@H](NC(=O)CNC(=O)[C@@H](NC(=O)[C@H](Cc2c[nH]cn2)NC(=O)[C@H](CCC(N)=O)NC(=O)[C@H](C)NC(=O)CNC(=O)[C@H](Cc2c[nH]cn2)NC(=O)[C@H](Cc2ccc(O)cc2)NC(=O)[C@H](CCCCN)NC(=O)[C@H](CCCNC(=N)N)NC(=O)[C@H](C)NC(=O)COCCOCCNC(=O)COCCOCCNC(=O)CC[C@H](NC(=O)CCCCCCCCCCCCCCCCC(=O)O)C(=O)O)[C@@H](C)O)C(C)C)CSSC[C@@H](C(=O)O)NC(=O)CNC(=O)[C@H](CC(C)C)NC(=O)CNC(=O)[C@H](CO)NC(=O)[C@H](CC(C)C)NC(=O)[C@H](CO)NC(=O)CNC1=O` [compound 1351] ({C18 diacid-γGlu-AEEA-AEEA}-ARKYHGAQHTGVSSGCFGLPLDRIGSLSGLGC-OH; disulfide 16-32), in data set [1], the “2-Week HMWP formation at pH 4.0 (%), % relative to total peak area” value was 1.94%. In data set [2], the clearance was 0.0093 L/h/kg and the half-life is 6.07 h.
For the compound `CC[C@H](C)[C@@H]1NC(=O)[C@H](CCCNC(=N)N)NC(=O)[C@H](CC(=O)O)NC(=O)[C@H](CC(C)C)NC(=O)[C@@H]2CCCN2C(=O)[C@H](CC(C)C)NC(=O)CNC(=O)[C@H](Cc2ccccc2)NC(=O)[C@@H](NC(=O)CNC(=O)[C@H](CO)NC(=O)[C@H](CO)NC(=O)[C@@H](NC(=O)CNC(=O)[C@@H](NC(=O)[C@H](CCCCN)NC(=O)[C@H](CCC(N)=O)NC(=O)[C@H](C)NC(=O)CNC(=O)[C@H](Cc2c[nH]cn2)NC(=O)[C@H](Cc2ccc(O)cc2)NC(=O)COCCOCCNC(=O)COCCOCCNC(=O)COCCOCCNC(=O)CC[C@H](NC(=O)CCCCCCCCCCCCCCCCC(=O)O)C(=O)O)[C@@H](C)O)C(C)C)CSSC[C@@H](C(=O)O)NC(=O)CNC(=O)[C@H](CC(C)C)NC(=O)CNC(=O)[C@H](CO)NC(=O)[C@H](CC(C)C)NC(=O)[C@H](CO)NC(=O)CNC1=O` [compound 1352] ({C18 diacid-γGlu-AEEA-AEEA-AEEA}-YHGAQKTGVSSGCFGLPLDRIGSLSGLGC-OH; disulfide 13-29), the “2-Week HMWP formation at pH 6.5 (%), % relative to total peak area” value in data set [1] stood at 0.82%. In data set [2], the clearance was 0.0102 L/h/kg and the half-life is 6.34 h.
Take `CC[C@H](C)[C@@H]1NC(=O)[C@H](CCCNC(=N)N)NC(=O)[C@H](CC(=O)O)NC(=O)[C@H](CC(C)C)NC(=O)[C@@H]2CCCN2C(=O)[C@H](CC(C)C)NC(=O)CNC(=O)[C@H](Cc2ccccc2)NC(=O)[C@@H](NC(=O)CNC(=O)[C@H](CO)NC(=O)[C@H](CO)NC(=O)[C@H](CC(C)C)NC(=O)CNC(=O)[C@H](CCCCN)NC(=O)[C@H](CCCCN)NC(=O)[C@H](CCC(N)=O)NC(=O)[C@H](C)NC(=O)CNC(=O)[C@H](CCC(=O)O)NC(=O)[C@H](Cc2ccc(O)cc2)NC(=O)CNC(=O)CNC(=O)CNC(=O)COCCOCCNC(=O)COCCOCCNC(=O)CC[C@H](NC(=O)CCCCCCCCCCCCCCCCC(=O)O)C(=O)O)CSSC[C@@H](C(=O)O)NC(=O)CNC(=O)[C@H](CC(C)C)NC(=O)CNC(=O)[C@H](CO)NC(=O)[C@H](CC(C)C)NC(=O)[C@H](CO)NC(=O)CNC1=O` [compound 1378] ({C18 diacid-γGlu-AEEA-AEEA}-GGGYEGAQKKGLSSGCFGLPLDRIGSLSGLGC-OH; disulfide 16-32): the “2-Week HMWP formation at pH 6.5 (%), % relative to total peak area” value in data set [1] was 6.67%. Moreover, in data set [2], the clearance was 0.00926 L/h/kg and the half-life was 5.29 h.
Take `CC[C@H](C)[C@@H]1NC(=O)[C@H](CCCNC(=N)N)NC(=O)[C@H](CC(=O)O)NC(=O)[C@H](CC(C)C)NC(=O)[C@@H]2CCCN2C(=O)[C@H](CC(C)C)NC(=O)CNC(=O)[C@H](Cc2ccccc2)NC(=O)[C@@H](NC(=O)CNC(=O)[C@H](CCC(N)=O)NC(=O)[C@H](CO)NC(=O)[C@H](CO)NC(=O)CNC(=O)[C@H](Cc2c[nH]cn2)NC(=O)[C@H](Cc2c[nH]cn2)NC(=O)[C@H](CCC(N)=O)NC(=O)[C@H](C)NC(=O)CNC(=O)[C@H](Cc2c[nH]cn2)NC(=O)[C@H](Cc2ccc(O)cc2)NC(=O)[C@H](CCCCN)NC(=O)[C@H](Cc2c[nH]cn2)NC(=O)[C@H](C)NC(=O)[C@H](CCC(N)=O)NC(=O)[C@@H]2CCCN2C(=O)[C@H](Cc2c[nH]cn2)NC(=O)[C@H](CCC(=O)O)NC(=O)[C@H](CCC(N)=O)NC(=O)COCCOCCNC(=O)COCCOCCNC(=O)CC[C@H](NC(=O)CCCCCCCCCCCCCCCCC(=O)O)C(=O)O)CSSC[C@@H](C(=O)O)NC(=O)CNC(=O)[C@H](CC(C)C)NC(=O)CNC(=O)[C@H](CO)NC(=O)[C@H](CC(C)C)NC(=O)[C@H](CO)NC(=O)CNC1=O` [compound 1381] ({C18 diacid-γGlu-AEEA-AEEA}-QEHPQAHKYHGAQHHGSSQGCFGLPLDRIGSLSGLGC-OH; disulfide 21-37): the “2-Week HMWP formation at pH 4.0 (%), % relative to total peak area” value in data set [1] came out at 0.84%. In data set [2], the clearance is 0.00382 L/h/kg and the half-life is 15.2 h.
Take `CC[C@H](C)[C@@H]1NC(=O)[C@H](CCCNC(=N)N)NC(=O)[C@H](CC(=O)O)NC(=O)[C@H](CC(C)C)NC(=O)[C@@H]2CCCN2C(=O)[C@H](CC(C)C)NC(=O)CNC(=O)[C@H](Cc2ccccc2)NC(=O)[C@@H](NC(=O)CNC(=O)[C@H](CO)NC(=O)[C@H](CO)NC(=O)[C@H](CC(C)C)NC(=O)CNC(=O)[C@H](CCCCN)NC(=O)[C@H](CCCCN)NC(=O)[C@H](CCC(N)=O)NC(=O)[C@H](C)NC(=O)CNC(=O)[C@H](CCCCN)NC(=O)[C@H](Cc2ccc(O)cc2)NC(=O)[C@H](CCCCN)NC(=O)[C@H](CCCNC(=N)N)NC(=O)[C@H](C)NC(=O)[C@H](CCC(N)=O)NC(=O)[C@@H]2CCCN2C(=O)[C@H](Cc2c[nH]cn2)NC(=O)[C@H](CCC(=O)O)NC(=O)[C@H](CCC(N)=O)NC(=O)CC[C@H](NC(=O)CC[C@H](NC(=O)CC[C@H](NC(=O)CC[C@H](NC(=O)CCCCCCCCCCCCCCCCC(=O)O)C(=O)O)C(=O)O)C(=O)O)C(=O)O)CSSC[C@@H](C(=O)O)NC(=O)CNC(=O)[C@H](CC(C)C)NC(=O)CNC(=O)[C@H](CO)NC(=O)[C@H](CC(C)C)NC(=O)[C@H](CO)NC(=O)CNC1=O` [compound 1389] ({C18 diacid-γGlu-γGlu-γGlu-γGlu}-QEHPQARKYKGAQKKGLSSGCFGLPLDRIGSLSGLGC-OH; disulfide 21-37): in data set [1], the “2-Week HMWP formation at pH 4.0 (%), % relative to total peak area” value is listed as 1.43%. For the same compound, in data set [2], the clearance was 0.00415 L/h/kg and the half-life is 14.6 h.
As for `CC[C@H](C)[C@@H]1NC(=O)[C@H](CCCNC(=N)N)NC(=O)[C@H](CC(=O)O)NC(=O)[C@H](CC(C)C)NC(=O)[C@@H]2CCCN2C(=O)[C@H](CC(C)C)NC(=O)CNC(=O)[C@H](Cc2ccccc2)NC(=O)[C@@H](NC(=O)CNC(=O)[C@H](CCC(N)=O)NC(=O)[C@H](CO)NC(=O)[C@H](CC(C)C)NC(=O)CNC(=O)[C@H](CCCCN)NC(=O)[C@H](CCCCN)NC(=O)[C@H](CCC(N)=O)NC(=O)[C@H](C)NC(=O)CNC(=O)[C@H](CCCCN)NC(=O)[C@H](Cc2ccc(O)cc2)NC(=O)COCCOCCNC(=O)COCCOCCNC(=O)COCCOCCNC(=O)COCCOCCNC(=O)CC[C@H](NC(=O)CC[C@H](NC(=O)CC[C@H](NC(=O)CCCCCCCCCCCCCCCCC(=O)O)C(=O)O)C(=O)O)C(=O)O)CSSC[C@@H](C(=O)O)NC(=O)CNC(=O)[C@H](CC(C)C)NC(=O)CNC(=O)[C@H](CO)NC(=O)[C@H](CC(C)C)NC(=O)[C@H](CO)NC(=O)CNC1=O` [compound 9480] ({C18 diacid-γGlu-γGlu-γGlu-AEEA-AEEA-AEEA-AEEA}-YKGAQKKGLSQGCFGLPLDRIGSLSGLGC-OH; disulfide 13-29), the “2-Week HMWP formation at pH 6.5 (%), % relative to total peak area” value in data set [1] is 2.65%.
With `CC[C@H](C)[C@@H]1NC(=O)[C@H](CCCNC(=N)N)NC(=O)[C@H](CCC(=O)O)NC(=O)[C@H](CC(C)C)NC(=O)[C@@H]2CCCN2C(=O)[C@H](CC(C)C)NC(=O)CNC(=O)[C@H](Cc2ccccc2)NC(=O)[C@@H](NC(=O)CNC(=O)[C@H](CO)NC(=O)[C@H](CO)NC(=O)[C@H](CC(C)C)NC(=O)CNC(=O)[C@H](CCCCN)NC(=O)[C@H](CCCCN)NC(=O)[C@H](CCC(N)=O)NC(=O)[C@H](C)NC(=O)CNC(=O)[C@H](CCCCN)NC(=O)[C@H](Cc2ccc(O)cc2)NC(=O)[C@H](CCCCN)NC(=O)[C@H](CCCNC(=N)N)NC(=O)[C@H](C)NC(=O)[C@H](CCC(N)=O)NC(=O)[C@@H]2CCCN2C(=O)[C@H](Cc2c[nH]cn2)NC(=O)[C@H](CCC(=O)O)NC(=O)[C@H](CCC(N)=O)NC(=O)CC[C@H](NC(=O)CC[C@H](NC(=O)CC[C@H](NC(=O)CC[C@H](NC(=O)CCCCCCCCCCCCCCCCC(=O)O)C(=O)O)C(=O)O)C(=O)O)C(=O)O)CSSC[C@@H](C(=O)O)NC(=O)CNC(=O)[C@H](CC(C)C)NC(=O)CNC(=O)[C@H](CO)NC(=O)[C@H](CC(C)C)NC(=O)[C@H](CO)NC(=O)CNC1=O` [compound 9483] ({C18 diacid-γGlu-γGlu-γGlu-γGlu}-QEHPQARKYKGAQKKGLSSGCFGLPLERIGSLSGLGC-OH; disulfide 21-37), the “2-Week HMWP formation at pH 4.0 (%), % relative to total peak area” value in data set [1] was 3.0%.
